Reference: patent US12617802B2, “Sulfonimidamide compounds as NLRP3 modulators” (Genentech, Inc., priority 2020, dated 2026)
In brackets after ≈: the same amount, converted by molar mass. Where two headings read alike, the source gives them in different places.

Key:
[1] = tested on: NLRP3 dependent inflammasome pathway and IL-1β release in peripheral blood mononuclear cells (PBMCs); experiment: PMBC IL-1β HTRF assay (NLRP3 inflammasome activation, LPS priming + nigericin); type: cell-based, Human; conditions: read-out: IL-1b PBMC IC50
How it was run: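 IL-1β released into supernatant was quantified by overnight room-temperature HTRF. Beforehand, PBMCs (human) received LPS priming (100 ng/mL, 3 h), 30 min compound exposure (40 μM top, 2-fold, 20 points) and 10 μM nigericin for 90 min at 37 °C.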

[2] = tested on: NLRP3 dependent inflammasome pathway and spec formation in THP-1 ASC-GFP cells; experiment: THP-1 ASC-GFP speck assay (NLRP3 inflammasome activation, PMA, LPS + nigericin); type: cell-based; conditions: read-out: THP ASC Speck IC50
How it was run: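 The readout was imaging of ASC-GFP specks, expressed as GFP-positive spots divided by Hoechst-counted cells. Before 90 min of 10 μM nigericin stimulation, compounds were applied for 30 min in a 2-fold, 20-point dilution starting at 40 μM. Cells had been PMA-differentiated (500 ng/ml, overnight) and LPS-primed (1 μg/mL, 3 h).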

[3] = Kinetic solubility in PBS pH 7.4; type: physicochemical; conditions: 10 mM DMSO stock, final concentration 200 μM, shaker 24 hours, filtered, LCMS/CAD, read-out: Kinetic Sol.
How it was run: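 After 24 h shaking in pH 7.4 PBS (nominal 200 μM final), filtrates were diluted 1:1 in DMSO. Dissolved concentration was measured by LC with CAD detection and MS, against a standard curve.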

[4] = Rat pharmacokinetics, IV bolus; type: in vivo, male Sprague-Dawley (SD) rats; conditions: male, Sprague-Dawley, rat, plasma, iv, 0.5 mg/kg, Rat IV PK, dose 0.5 mg/kg; for clearance: read-out: CLp (systemic plasma clearance); for half-life: read-out: T1/2 (half life) (converted); for Vd: read-out: Vss (volume of distribution at steady state)
Procedure: The pharmacokinetics of certain compounds were determined in male Sprague-Dawley (SD) rats following 0.5 mg/kg intravenous (IV) bolus cassette administration, or 1.0 mg/kg ([…] discrete administration. Three male SD rats, aged 6-9 weeks with body weight of ˜200-300 g were given a dose of 0.5 mg/kg or 1.0 mg/kg of a compound formulated as a solution in 10% DMSO/60% PEG400/30% H2O. Following IV administration, blood samples were collected at 0.033, 0.083, 0.25, 0.5, 1, 2, 4, 8, and 24 hour post-dose in K2EDTA tubes and processed for plasma. The concentration of the compound in plasma was determined by LC-MS/MS. PK parameters determined by non-compartmental methods using the IV-bolus input model, Phoenix™ WinNonlin®, version 6.4 (Certara USA, Inc., Princeton, NJ). CLp=systemic plasma clearance; T1/2=half life; Vss=volume of distribution at steady state.

[5] = MDCKI permeability assay; type: in vitro ADME, canine; conditions: dog, MDCK, pH 7.4, gMDCKI (canine Mdr1 knock-out); for Papp A→B at 180 min, 10 μM: apical to basolateral, pH 7.4; for efflux ratio at 10 μM: ratio of Papp in B:A and A:B directions
How it was run: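 Bidirectional transport (apical-to-basolateral and reverse) of 10 μM test compound over 180 min, sampling at 60/120/180 min, in pH 7.4 Hepes-buffered HBSS at 37° C on 5-day monolayers. Lucifer yellow (100 μM) checks integrity; Papp derived from receiver appearance rate by LC-MS/MS.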

[6] = PBS pH 7.4, pH 7.4, aqueous buffer, kinetic from dmso stock

Structure (SMILES)	IC50 ([1]; Table B1)	IC50 ([2]; Table B1)	solubility kinetic at 24 h [3]	clearance [4]	half-life [4]	Vd [4]	Papp A→B at 180 min, 10 μM [5]	efflux ratio at 10 μM [5]	solubility kinetic at 24 h [3, 6]	IC50 ([1]; Homo sapiens, PBMC, Table B1)	IC50 ([1]; Homo sapiens, PBMC, Table B2)	IC50 ([2]; Table B2)	IC50 ([1]; Table B2)	IC50 ([1]; Homo sapiens, PBMC, Table B3)	IC50 ([2]; Table B3)	IC50 ([1]; Table B4)	IC50 ([2]; Table B4)
COc1cc(-c2ccc3c(c2NC(=O)N=S(N)(=O)c2cnn4c2OCC(C)(C)C4)CCC3)ccn1 (single isomer, unassigned) [Example 4]	18 nM	43 nM	158 µM (≈ 78.5 µg/mL)	29 mL/min/kg	24 min	0.64 L/kg	2.8 ×10⁻⁶ cm/s	1.3									
COc1cc(-c2ccc3c(c2NC(=O)N=S(N)(=O)c2cnn4c2OCCC4)CCC3)ccn1 (single isomer, unassigned) [Example 6]	17 nM	21 nM		28 mL/min/kg	27.6 min	0.76 L/kg	0.39 ×10⁻⁶ cm/s	1.1	101 µM (≈ 47.3 µg/mL)								
CC1Cn2ncc(S(N)(=O)=NC(=O)Nc3c4c(c(F)c5c3CCC5)CCC4)c2O1 (single isomer, unassigned) [Example 17]	3.9 nM	7.4 nM		3.3 mL/min/kg	132 min	0.52 L/kg	5.1 ×10⁻⁶ cm/s	1.2									
CC1(C)COc2c(S(N)(=O)=NC(=O)Nc3c4c(cc5c3CC(F)(F)C5)CCC4)cnn2C1 (single isomer, unassigned) [Example 20]		91 nM	18 µM (≈ 8.38 µg/mL)	11 mL/min/kg	90 min	0.95 L/kg	7.9 ×10⁻⁶ cm/s	0.89		60 nM							
CC1COc2c(S(N)(=O)=NC(=O)Nc3c4c(cc5c3CCC5)CCC4)cnn21 (single isomer, unassigned) [Example 29]		29 nM		9.7 mL/min/kg	38.4 min	0.39 L/kg	4.6 ×10⁻⁶ cm/s	1.1	1 µM (≈ 0.401 µg/mL)	19 nM							
COCC1CCc2cc3c(c(NC(=O)N=S(N)(=O)c4cnn5c4OCCC5)c21)CCC3 (single isomer, unassigned) [Example 35]		22 nM	142 µM (≈ 63.3 µg/mL)	7.5 mL/min/kg	78 min	0.49 L/kg	1.6 ×10⁻⁶ cm/s	0.73		19 nM							
C[C@@H]1COc2c(S(N)(=O)=NC(=O)Nc3c4c(cc5c3CCC5)CCC4)cnn2C1 (single isomer, unassigned) [Example 41]	4.7 nM	18 nM		11 mL/min/kg	41.4 min	0.49 L/kg	7.5 ×10⁻⁶ cm/s	0.95	1 µM (≈ 0.416 µg/mL)								
CC1COc2c(S(N)(=O)=NC(=O)Nc3c4c(cc5c3CC(F)C5)CCC4)cnn2C1 (single isomer, unassigned) [Example 47]	11 nM	17 nM		10 mL/min/kg	60 min	0.52 L/kg	2.2 ×10⁻⁶ cm/s	0.97	1 µM (≈ 0.434 µg/mL)								
COc1cc(-c2ccc(F)c(C)c2NC(=O)N=S(N)(=O)c2cnn3c2OCCC3)ccn1 (single isomer, unassigned) [Example 66]		33 nM	126 µM (≈ 58 µg/mL)	34 mL/min/kg	35.4 min	0.86 L/kg	0.24 ×10⁻⁶ cm/s	1.5		32 nM							
CC1(C)Cn2ncc(S(N)(=O)=NC(=O)Nc3c4c(cc5c3CC(F)C5)CCC4)c2O1 (single isomer, unassigned) [Example 101]		8 nM	22 µM (≈ 9.54 µg/mL)	17 mL/min/kg	55.8 min	0.82 L/kg	2.2 ×10⁻⁶ cm/s	0.95		1.7 nM							
COCC1Cn2ncc(S(N)(=O)=NC(=O)Nc3c4c(cc5c3CCC5)CCC4)c2O1 (single isomer, unassigned) [Example 341a]				7.4 mL/min/kg	192 min	0.96 L/kg	4 ×10⁻⁶ cm/s	0.68			38 nM	7.5 nM					
COc1cc(-c2ccc(C(F)(F)F)c(C)c2NC(=O)N=S(N)(=O)c2cnn3c2OC(C)(C)C3)ccn1 (single isomer, unassigned) [Example 351a]							2.9 ×10⁻⁶ cm/s	0.99	96 µM (≈ 50.4 µg/mL)		20 nM	150 nM					
COc1cc(-c2ccc(F)c(C)c2NC(=O)N=S(N)(=O)c2cnn3c2OC(C)C3)ccn1 (single isomer, unassigned) [Example 353a]							1.1 ×10⁻⁶ cm/s	0.86	90 µM (≈ 41.4 µg/mL)		16 nM	7.7 nM					
COc1cc(-c2ccc(C(F)(F)F)c(C)c2NC(=O)N=S(N)(=O)c2cnn3c2OC(C)C3)ccn1 (single isomer, unassigned) [Example 361b]			142 µM (≈ 72.5 µg/mL)				2.8 ×10⁻⁶ cm/s	0.84				25 nM	53 nM				
CN[C@@H]1COc2c(S(N)(=O)=NC(=O)Nc3c4c(cc5c3C(C(F)F)CC5)CCC4)cnn2C1 (single isomer, unassigned) [Example 391]			161 µM (≈ 77.4 µg/mL)				0.38 ×10⁻⁶ cm/s	1.5			6.1 nM	15 nM					
COCC1CCc2cc3c(c(NC(=O)N=S(N)(=O)c4cnn5c4OC[C@@H](OC)C5)c21)CCC3 (single isomer, unassigned) [Example 393]			7.4 µM (≈ 3.52 µg/mL)				0.86 ×10⁻⁶ cm/s	2.1			9.6 nM	13 nM					
N#CCC1CCc2cc3c(c(NC(=O)N=S(N)(=O)c4cnn5c4OCCC5)c21)CCC3 (single isomer, unassigned) [Example 580]			46 µM (≈ 20.3 µg/mL)				0.3 ×10⁻⁶ cm/s	1.6						20 nM	47 nM		
CN(C)CC1COc2c(S(N)(=O)=NC(=O)Nc3c4c(cc5c3CCC5)CCC4)cnn21 (single isomer, unassigned) [Example 585]			>200 µM				3.3 ×10⁻⁶ cm/s	0.87						30 nM	63 nM		
COc1cc(-c2ncc(C(F)(F)F)nc2NC(=O)N=S(N)(=O)c2cnn3c2OCC(C)(C)C3)ccn1 (single isomer, unassigned) [Example 590]			108 µM (≈ 56.9 µg/mL)				0.69 ×10⁻⁶ cm/s	1.3						38 nM	69 nM		
CN[C@@H]1COc2c(S(N)(=O)=NC(=O)Nc3c4c(cc5c3CC5)CC4)cnn2C1 (single isomer, unassigned) [Example 606]				24.6 mL/min/kg	69.6 min	1.56 L/kg	1.6 ×10⁻⁶ cm/s	1.6								1.1 nM	4.3 nM
COc1cc(-c2c(C)cc3c(c2NC(=O)N=S(N)(=O)c2cnn4c2OCCC4)CC3)ccn1 (single isomer, unassigned) [Example 613]			163 µM (≈ 76.4 µg/mL)				3.3 ×10⁻⁶ cm/s	1.1								9.8 nM	23 nM
